Here are results for 37 compounds from PubChem BioAssay (NCI).

Several values for one entry are separate records, joined by “and”; a condition that tells them apart may be missing. Equal entries are not always repeated.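 Step 1: Grow cells in 96-well plates. Step 2: Expose to compound for 48 hours at 5 concentrations. Step 3: Interpolate endpoints linearly; if unreached, use highest concentration. Here, GI50 denotes the concentration required for 50% inhibition of growth. TGI: total growth inhibition.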

This experiment has as its system MDA-MB-468 breast. Put plainly: DTP human tumour cell line panel, 48 h.

In general, GI50 refers to the concentration giving 50% growth inhibition. For orientation: TGI means the concentration at which net growth stops. Low readings indicate greater sensitivity of the cells, high ones lower sensitivity of the cells.

`CCOC(=O)C(=Cc1ccc(C#N)cc1)C(=O)OCC`: the GI50 is 1980 nM and the TGI stood at 3840 nM.

Turning to `Cc1ccc2c(C(C[N+](=O)[O-])c3ccccc3)c(-c3ccccc3)[nH]c2c1` (centres undefined), the GI50 was 12700 nM and the total growth inhibition concentration (TGI) is greater than 95000 nM.

On to `Cc1c(Cn2c(C)nc3c(C(=O)O)cc(N4CCOCC4)cc32)cccc1C(F)(F)F`, for which the GI50 is 26700 nM and the concentration for total growth inhibition (TGI) is greater than 100000 nM.

On to `CCCc1nn(C)c2c(=O)[nH]c(-c3cc(S(=O)(=O)N4CCN(C)CC4)ccc3OCC)nc12`, for which the GI50 was 35000 nM and the concentration for total growth inhibition (TGI) was greater than 100000 nM.

As for `COc1cc(-c2nn(-c3cccc(NC(=O)Nc4ccc(Cl)c(C(F)(F)F)c4)c3)cc2-c2ccncc2)ccc1Cl`, the GI50 was 833 nM and the TGI came out at 4420 nM.

Regarding `COc1cc2nc(N3CCCN(C)CC3)nc(NC3CCN(Cc4ccccc4)CC3)c2cc1OC`, the GI50 was 1500 nM and the concentration for total growth inhibition (TGI) came out at 3190 nM.

On to `CC1=C([Te]c2ccccc2)C(=O)c2ccccc2C1=O`, for which the GI50 was 442 nM and the TGI came to 2120 nM.

For `Cc1ccc(CNc2ccc3nc(CCC4CCCCC4)[nH]c3c2)cc1`, the GI50 is 1520 nM and the TGI came to 3350 nM.

`C(=N\Nc1ncc(-c2cc3cc4c(cc3o2)OCO4)s1)/c1ccco1`: the GI50 is 2140 nM and the total growth inhibition concentration (TGI) was 7140 nM.

For `COc1cc(CCC[P+](c2ccccc2)(c2ccccc2)c2ccccc2)c(OC)c2c1OCO2`, the GI50 was 292 nM and the TGI amounted to 950 nM.

For the compound `Fc1cccc(COc2ccc(Nc3ncnc4onc(-c5ccccc5)c34)cc2)c1`, the GI50 is 116 nM and the total growth inhibition concentration (TGI) stood at 2160 nM.

Consider `COc1cc2nc(Nc3cccc(Cl)c3)nc(N)c2cc1OC`, for which the GI50 is 4370 nM and the TGI was 17300 nM.

Consider `CN1C(=O)CCC(N2C(=O)c3cccc(NCCOCCOCCNC(=O)c4cc5c(o4)C(=O)c4ccccc4C5=O)c3C2=O)C1=O` (centres undefined), for which the GI50 is 1760 nM and the TGI was 5040 nM.

Turning to `CN(C)c1ccc(/C=N/NC(N)=S)nc1`, the GI50 is 2210 nM and the TGI was 8410 nM.

As to `COc1ccc2c(c1)c(-c1nc(-c3cn(C)c4ccncc34)cs1)cn2C`, the GI50 was 1620 nM and the TGI worked out at 3200 nM.

With `COc1ccc(Nc2nc(NCCNc3ccnc4cc(Cl)ccc34)nc(N3CCOCC3)n2)cc1`, the GI50 was 1620 nM and the concentration for total growth inhibition (TGI) turned out to be 4030 nM.

In the case of `O=S(=O)(N=C1C(Cl)=C(Cl)C(=NS(=O)(=O)c2ccccc2)C(Cl)=C1Cl)c1ccccc1`, the GI50 is 15100 nM and the total growth inhibition concentration (TGI) is 35900 nM.

Take `C[C@@H]1C[C@H](N)C[C@H](c2ccncc2NC(=O)c2ccc(F)c(-c3c(F)cccc3F)n2)C1`: the GI50 is 4160 nM and 2910 nM; the TGI was 18300 nM and > 10000 nM.

As for `O=C1c2c(c(=O)[nH]c3ccccc23)[C@H](c2ccccc2)[C@@H]2CCCN12`, the GI50 was 2920 nM and the concentration for total growth inhibition (TGI) was 14300 nM.

For the compound `COc1cnc2c(c1)C(=O)c1c-2n(CCCN2CCCC2)c(=O)c2cc([N+](=O)[O-])ccc12`, the GI50 is 27.1 nM and the total growth inhibition concentration (TGI) was found to be 1030 nM.

Regarding `CCOC(=O)c1[nH]c2cc(Cl)ccc2c1[C@@H](C(=O)NC(C)(C)C)N(CC)C(=O)CCCCC#Cc1cccc2c1CN(C1CCC(=O)NC1=O)C2=O` (some centres undefined), the 50% growth inhibitory concentration (GI50) is less than 10 nM and the total growth inhibition concentration (TGI) was less than 14.2 nM.

Consider `CCC(CC)n1cnc2c(-c3cnc(N)cn3)nc(N3CC4CCC(C3)O4)nc21`, for which the 50% growth inhibitory concentration (GI50) is 189 nM and the total growth inhibition concentration (TGI) worked out at 2810 nM.

Regarding `CCN1CCN(CCNc2nccc(-c3c(-c4ccc(F)c(O)c4)nc4occn34)n2)S1(=O)=O`, the GI50 is 4530 nM and the total growth inhibition concentration (TGI) was greater than 100000 nM.

Regarding `NC(=S)N/N=C/c1ccc(OC(=O)COc2cc(Cl)c(Cl)cc2Cl)cn1`, the GI50 is 2410 nM and the TGI came to 8710 nM.

Regarding `Cc1cc2c(F)c(Oc3ncnc(Nc4ccc(N5C[C@@H](C)N[C@@H](C)C5)cc4)c3C#N)cc(F)c2[nH]1`, the GI50 was 2050 nM and the TGI came to 4750 nM.

In the case of `COc1ccc(Br)cc1NC(=O)Nc1cccc2c1ccn2Cc1ccnc(N)c1`, the GI50 is 2850 nM and 4540 nM; the TGI was 12000 nM and > 10000 nM.

Turning to `CC(=O)O.CN1[CH-]N(Cc2ccc(C#N)cc2)c2ccccc21.[Ag+]`, the GI50 is 12800 nM and the concentration for total growth inhibition (TGI) was found to be 28500 nM.

Consider `C=C(C)[C@@H]1CC[C@]2(CO)CC[C@]3(C)[C@H](CC[C@@H]4[C@@]5(C)CCCNC(C)(C)[C@@H]5CC[C@]43C)[C@@H]12`, for which the GI50 is 1660 nM and the total growth inhibition concentration (TGI) was determined as 3380 nM.

`COc1ccc(C(C)=C(c2ccc(OCCN3CCCCCC3)cc2)c2ccc(OCCN3CCCCCC3)cc2)cc1`: the GI50 is 806 nM and the total growth inhibition concentration (TGI) is 3050 nM.

As to `CC1COc2c(N3CCN(C)CC3)c(F)cc3c(=O)c(C(=O)N/N=C/c4cc[nH]c4)cn1c23` (centres undefined), the 50% growth inhibitory concentration (GI50) is 412 nM and the TGI worked out at 1730 nM.

Turning to `CC1(C)N=C(N)N=C(N)N1c1ccc(CNC(=O)Nc2ccc(S(=O)(=O)F)c(Cl)c2)c(Cl)c1`, the GI50 was 689 nM and the total growth inhibition concentration (TGI) was greater than 100000 nM.

Take `Cn1ncc(Cl)c1-c1cc(C(=O)N[C@H](CN)Cc2cccc(F)c2)sc1Cl`: the concentration for 50% growth inhibition (GI50) is 38.7 nM and 92 nM; the total growth inhibition concentration (TGI) is 582 nM and 1390 nM.

With `COc1ccc(-c2ncnc3c2ncn3CC#CCCl)cc1`, the GI50 is 2370 nM and the TGI was 7290 nM.

Turning to `Cc1c(CN2CCN(C(=O)[C@H](C)O)CC2)sc2c(N3CCOCC3)nc(-c3cnc(N)nc3)nc12`, the GI50 is 124 nM and 79.3 nM; the TGI is 1140 nM and 456 nM.

Regarding `Nc1ncc(-c2ccc3ncnc(Nc4cccc(Cl)c4)c3c2)cn1`, the GI50 is 56.5 nM and the TGI amounted to 378 nM.

For the compound `COC[C@H](NC(=O)c1cnc(C)s1)C(=O)N[C@@H](COC)C(=O)N[C@@H](Cc1ccccc1)C(=O)[C@@]1(C)CO1`, the GI50 is 14800 nM and the TGI turned out to be 38100 nM.

Take `COC(=O)/C=C1/SC(=Nc2cccc(Cl)c2)N(CCc2c[nH]c3ccc(O)cc23)C1=O`: the GI50 was 1990 nM and the concentration for total growth inhibition (TGI) came to 4400 nM.
